Measured values from patent publication US12599596B2, “Anti-tumor pharmaceutical composition based on immune checkpoint blockade and use thereof” (Shanghai Hui Tian Jin Ze Biotech Co., Ltd., priority 2023, dated 2026).
Counter-ions that a name gives are not always drawn.

Columns and labels:
MC38 colon cancer cells = assay: MC38 subcutaneous tumor model in C57BL/6 mice, Embodiment 5; format: in vivo; details: for Tumor volume: CBD 100 mg/kg, PAR 5 mg/kg, vitamin E 50 mg/kg; for therapeutic / tumor inhibition effect in words: normal mice, Embodiment 5, comparison between groups
Protocol: MC38 colon cancer cells were inoculated into 6-week-old female C57BL/6 mice (1×10^6 cells/mouse) to establish a subcutaneous tumor model. After the tumor volume reached 50 mm^3, the mice were grouped and administered with the following pharmaceutical combinations: (1) control group (no drug administration), (2) anti-PD-1 ([…] per time) group, (3) vitamin E(α-tocopherol) (50 mg/kg) group, (4) CBD (100 mg/kg) group, (5) CBD (100 mg/kg)+vitamin E(α-tocopherol) (50 mg/kg) group, (6) PAR (5 mg/kg) group, (7) PAR (5 mg/kg)+vitamin E(α-tocopherol) (50 mg/kg) group, (8) CBD (100 mg/kg)+PAR (5 mg/kg) group, and (9) PAR (5 mg/kg)+CBD (100 mg/kg)+vitamin E(α-tocopherol) (50 mg/kg) group.
The tumor weight, tumor volume, and mouse body weight were monitored once every 2 days. The tumor volume was calculated as follows: tumor volume (mm^3)=0.5×(length)×(width)^2. The mice were sacrificed 14 days after drug administration, and the tumors were dissected.
The dissolving mode of the pharmaceutical composition was as follows: the pharmaceutical composition was dissolved in 10% DMSO+corn oil, the mice were gavaged with the pharmaceutical composition at 100 μl/mice, and the mice in the control group were injected with the same volume of the solvent.

[1] = test system: MC38 colorectal cancer cells; assay: MC38 subcutaneous tumor model in C57BL/6 mice, Embodiment 2; format: in vivo; details: for Tumor volume: CBD 100 mg/kg, PAR 10 mg/kg, vitamin E 50 mg/kg, thymosin 2 mg/kg
Protocol: • 1. MC38 colorectal cancer cells were inoculated into 6-week-old female C57BL/6 mice (1×10^6 cells/mouse) to establish a subcutaneous tumor model. After the tumor volume reached 50 mm^3, the mice were grouped and administered according to the following pharmaceutical combinations: (1) control group (no administration), (2) anti-PD-1 ([…]/time) group, (3) anti-CTLA4 ([…]/time) group, (4) CBD (100 mg/kg) group, (5) CBD (100 mg/kg)+anti-CTLA4 ([…]/time) group, (6) PAR (10 mg/kg) group, (7) PAR (10 mg/kg)+anti-CTLA4 ([…]) group, (8) CBD (100 mg/kg)+PAR (10 mg/kg) group, (9) vitamin E(a-tocopherol) (50 mg/kg)+thymosin (2 mg/kg) group, (10) CBD (100 mg/kg)+vitamin E(α-tocopherol) (50 mg/kg)+thymosin (2 mg/kg) group, (11) PAR (10 mg/kg)+vitamin E(α-tocopherol) (50 mg/kg)+thymosin (2 mg/kg), (12) PAR (10 mg/kg)+CBD (100 mg/kg)+vitamin E(α-tocopherol) (50 mg/kg)+thymosin (2 mg/kg) group, (13) CBD (100 mg/kg)+vitamin E(α-tocopherol) (50 mg/kg)+thymosin (2 mg/kg)+anti-CTLA4 ([…]/time) group, (14) PAR (10 mg/kg)+vitamin E(α-tocopherol) (50 mg/kg)+thymosin (2 mg/kg)+anti-CTLA4 ([…]) group, and (15) CBD (100 mg/kg)+PAR (10 mg/kg)+vitamin E(α-tocopherol) (50 mg/kg)+thymosin (2 mg/kg)+anti-CTLA4 ([…]/time) group. The tumor weight and volume, and body weight of the mice were monitored once every 2 days. The tumor volume was calculated as follows: tumor volume (mm^3)=0.5×(length)x(width)^2. The mice were sacrificed 14 days after drug administration, and the tumors were dissected.
The dissolving mode of the pharmaceutical composition was as follows: the pharmaceutical composition was dissolved in 10% DMSO+corn oil, the mice were gavaged with the pharmaceutical composition at 100 pl/mouse, and the mice in the control group were injected with the same volume of the solvent. • 2. MC38 colorectal cancer cells were inoculated into 6-week-old female nude mice (1×10^6 cells/mouse) to establish a subcutaneous tumor model. After the tumor volume reached 50 mm^3, the mice were grouped and administered according to the following pharmaceutical combinations: (1) control group, (2) CBD (100 mg/kg)+vitamin E(α-tocopherol) (50 mg/kg)+thymosin (2 mg/kg) group, (3) PAR (10 mg/kg)+vitamin E(α-tocopherol) (50 mg/kg)+thymosin (2 mg/kg) group, and (4) PAR (10 mg/kg)+CBD (100 mg/kg)+vitamin E(α-tocopherol) (50 mg/kg)+thymosin (2 mg/kg) group. The tumor weight and volume, and the body weight of the mice were monitored once every 2 days. The tumor volume was calculated as follows: tumor volume (mm^3)=0.5×(length)x(width)^2. The mice were sacrificed 14 days after drug administration, and the tumors were dissected. (II) Experimental Results 1.

PD-L1 in tumor cells = assay: Expression of PD-L1 in tumor cells with paroxetine hydrochloride; format: cell-based; details: no method or data given

SMILES | Tumor volume (MC38 colon cancer cells; Day 0) | Tumor volume (MC38 colon cancer cells; Day 4) | Tumor volume (MC38 colon cancer cells; Day 6) | Tumor volume (MC38 colon cancer cells; Day 8) | Tumor volume (MC38 colon cancer cells; Day 10) | Tumor volume (MC38 colon cancer cells; Day 12) | Tumor volume (MC38 colon cancer cells; Day 14) | Tumor volume (MC38 colon cancer cells; Day 16) | therapeutic / tumor inhibition effect in words (MC38 colon cancer cells) | Tumor volume ([1]; Day 0) | Tumor volume ([1]; Day 2) | Tumor volume ([1]; Day 4) | Tumor volume ([1]; Day 6) | Tumor volume ([1]; Day 8) | Tumor volume ([1]; Day 10) | Tumor volume ([1]; Day 12) | Tumor volume ([1]; Day 14) | Tumor volume ([1]; Day 16) | therapeutic / tumor inhibition effect in words ([1]; normal mice, Embodiment 2, comparison between groups) | expression of PD-L1 in tumor cells (PD-L1 in tumor cells)
Cc1c(C)c2c(c(C)c1O)CC[C@@](C)(CCC[C@H](C)CCC[C@H](C)CCCC(C)C)O2 [VE, a-tocopherol] | 0 mm^3 | 58.77 mm^3 | 124.89 mm^3 | 191.75 mm^3 | 284.59 mm^3 | 459.67 mm^3 | 532.81 mm^3 | 624.47 mm^3 | no significant therapeutic effect |  |  |  |  |  |  |  |  |  |  | 
Fc1ccc([C@@H]2CCNC[C@H]2COc2ccc3c(c2)OCO3)cc1 [PAR, paroxetine hydrochloride] | 0 mm^3 | 44.74 mm^3 | 61.50 mm^3 | 85.83 mm^3 | 136.25 mm^3 | 176.62 mm^3 | 262.06 mm^3 | 302.90 mm^3 | equivalent therapeutic effects | 0 mm^3 | 43.63 mm^3 | 68.09 mm^3 | 83.54 mm^3 | 177.63 mm^3 | 263.45 mm^3 | 393.48 mm^3 | 510.89 mm^3 | 608.61 mm^3 | equivalent therapeutic effects | reduces the expression of PD-L1
